In patent US4401667A, “Cephalosporins” (Karl Thomae Gesellschaft mit beschrankter Haftung, priority 1980, dated 1983):
Values after ≈ are worked out from the molar mass of the structure shown. Like-named read-outs stand apart in the source and are kept apart here.

How the values were obtained:
[1] = tested on: E. coli R+TEM (β-lactamase carrier); experiment: serial dilution test in the microtiter system (MIC); assay type: cell-based; settings: Escherichia coli
Experimental: (§1) The tests were performed using the serial dilution test in the microtiter system. […] The nutrient medium consisted of 10 gm of peptone, 8 gm of meat extract oxoid, 3 gm of sodium chloride, and 2 gm of sec. sodium phosphate diluted with distilled water to 100 ml (pH 7.2-7.4). The age of the primary cultures was approximately 20 hours. The standardization of the bacteria suspension was effected using a photometer according to the method of Eppendorf (test tube .phi. 14 mm, filter 546 nm), using for comparison a barium sulfate suspension formed by the addition of 3.0 ml of 1% barium chloride solution to 97 ml of 1% sulfuric acid. After standardization, the test microorganisms were further diluted to a concentration of 1:1500, using a sodium chloride solution.
(§2) 16 mgm of the particular test compound were put into a 10 ml measuring flask, and the flask was subsequently filled to the mark with the solvent. The further dilution series was standardized with distilled water or the appropriate solvent.
(§3) The depressions of the microtiter plates were filled with 0.2 ml of nutrient medium. 0.01 ml of the appropriate test compound solution was then added, followed by inoculation with 0.01 ml (1 drop) of the standardized bacteria suspension. The bacteria were incubated at 37° C. for 18 to 20 hours. Control tests using only the solvent were carried out simultaneously.
(§4) The readings were made macroscopically to determine the minimum inhibitory concentration (the lowest still bacteriostatically effective concentration).
(§5) The following test organisms were used:
(§6) Staphylococcus aureus SG 511, Escherichia coli ATCC 11 775, Pseudomonas aeruginosa hamburgensis and Pseudomonas aeruginosa BC 19, Serratia marcescens ATCC 13 880, Klebsiella pneumoniae ATCC 10 031 and BC 6, Proteus mirabilis BC 17, Proteus rettgeri BC 7, Enterobacter Cloaceae ATCC 13047 and E. coli R+TEM (β-lactamase carrier).

[2] = tested on: Enterobacter Cloaceae ATCC 13047; experiment: as above; assay type: cell-based; settings: Ent. cloacae ATCC 13047; 37° C., 18 to 20 hours
Experimental: as §1, §2, §3, §4, §5, §6

[3] = tested on: Escherichia coli ATCC 11 775; experiment: as above; assay type: cell-based; settings: E. coli ATCC 11775, 37° C., 18 to 20 hours
Experimental: as §1, §2, §3, §4, §5, §6

[4] = tested on: Klebsiella pneumoniae ATCC 10 031; experiment: as above; assay type: cell-based; settings: Kl. pneum. ATCC 10031, 37° C., 18 to 20 hours
Experimental: as §1, §2, §3, §4, §5, §6

[5] = tested on: Klebsiella pneumoniae BC 6; experiment: as above; assay type: cell-based
Experimental: as §1, §2, §3, §4, §5, §6

Proteus mirabilis BC 17 = experiment: as above; assay type: cell-based; settings: BC17, Prot. mirab. BC 17, 37° C., 18 to 20 hours
Experimental: as §1, §2, §3, §4, §5, §6

Proteus rettgeri BC 7 = experiment: as above; assay type: cell-based; settings: Providencia rettgeri, BC7; Prot. rettg.; 37° C., 18 to 20 hours
Experimental: as §1, §2, §3, §4, §5, §6

[6] = tested on: Pseudomonas aeruginosa BC 19; experiment: as above; assay type: cell-based
Experimental: as §1, §2, §3, §4, §5, §6

[7] = tested on: Pseudomonas aeruginosa hamburgensis; experiment: as above; assay type: cell-based
Experimental: as §1, §2, §3, §4, §5, §6

[8] = tested on: Serratia marcescens ATCC 13 880; experiment: as above; assay type: cell-based; settings: Serr. marcesc. ATCC 13880, 37° C., 18 to 20 hours
Experimental: as §1, §2, §3, §4, §5, §6

[9] = tested on: Staphylococcus aureus SG 511; experiment: as above; assay type: cell-based; settings: SG511, Staph. aureus SG 511, 37° C., 18 to 20 hours
Experimental: as §1, §2, §3, §4, §5, §6

E. coli ATCC 11 775 = experiment: experimental E. coli infection in mice; assay type: in vivo, mice (female, NMRI strain); settings: Escherichia coli, ATCC11, sc, 168 h, s.c. administration, once 1 hour after intraperitoneal infection, observation 7 days, read-out: ED50 (dose at which 50% of the animals survive)
Experimental: Test compounds A-D of the invention and cefuroxim were tested in vivo against experimental infections in mice. E.coli ATCC 11 775 was used as the pathogenic bacteria. An intraperitoneal infection was induced with 0.2 ml of a 5% mucin suspension of the bacteria. This corresponds to approximately 1.4×10^6 E. coli bacteria per mouse. […] The treatment was applied once (1 hour after infection). The observation period was 7 days.

[10] = BC6, Kl. pneum. BC 6, 37° C., 18 to 20 hours, read-out: MIC
[11] = Pseud. Hbg., 37° C., 18 to 20 hours, read-out: MIC
[12] = BC19, Pseud. BC 19, 37° C., 18 to 20 hours, read-out: MIC

For `NS(=O)(=O)c1ccc(CNc2ncc(NC(=O)N[C@@H](C(=O)N[C@@H]3C(=O)N4C(C(=O)O)=C(CSc5nnnn5CCO)CS[C@H]34)c3ccc(O)cc3)c(O)n2)s1` [B], the MIC [1] was 4 µg/mL (≈ 4.79 µM), the MIC [2] was 0.25 µg/mL (≈ 0.299 µM) and the MIC [3] was 0.06 µg/mL (≈ 0.0719 µM). For the same compound, the MIC [4] was 0.12 µg/mL (≈ 0.144 µM), the MIC [5, 10] was 0.25 µg/mL (≈ 0.299 µM) and the MIC (Proteus mirabilis BC 17) was 0.12 µg/mL (≈ 0.144 µM). The MIC (Proteus rettgeri BC 7) was 0.25 µg/mL (≈ 0.299 µM), the MIC ([6]; BC19) was 2 µg/mL (≈ 2.4 µM) and the MIC [7, 11] was 4 µg/mL (≈ 4.79 µM). For the same compound, the MIC [8] was 0.25 µg/mL (≈ 0.299 µM), the MIC [9] was 1 µg/mL (≈ 1.2 µM) and the ED50 (E. coli ATCC 11 775) was 0.4 mg/kg.

`O=C(Nc1cnc(NCc2cccnc2)nc1O)N[C@@H](C(=O)N[C@@H]1C(=O)N2C(C(=O)O)=C(CSc3nnnn3CCO)CS[C@H]12)c1ccc(O)cc1` [A, Sodium 7β-{D-α-[3-(4-hydroxy-2-(3'-pyridylmethylamino)-5-pyrimidinyl)-ureido]-p-hydroxyphenylacetamido}-3-{[1-(2'-hydroxyethyl)-tetrazol-5-yl]-thiomethyl}-ceph-3-em-4-carboxylate] showed an MIC [1] of 8 µg/mL, an MIC [2] of 0.5 µg/mL and an MIC [3] of 0.12 µg/mL. The MIC [4] was 0.25 µg/mL, the MIC [5, 10] was 0.5 µg/mL and the MIC (Proteus mirabilis BC 17) was 0.12 µg/mL. It also gave an MIC (Proteus rettgeri BC 7) of 0.5 µg/mL, an MIC ([6]; BC19) of 4 µg/mL and an MIC [7] of 8 µg/mL. For the same compound, the MIC [8] was 0.25 µg/mL, the MIC [9] was 1 µg/mL and the ED50 (E. coli ATCC 11 775) was 0.9 mg/kg.

Work on `CS(=O)(=O)CCn1nnnc1SCC1=C(C(=O)O)N2C(=O)[C@@H](NC(=O)[C@H](NC(=O)Nc3cnc(NCc4ccco4)nc3O)c3ccc(O)cc3)[C@H]2SC1` [D, Sodium 7β-{D-α-[3-(2-(2'-furylmethylamino)-4-hydroxy-5-pyrimidinyl)-ureido]-p-hydroxyphenylacetamido}-3-{[1-(2'-methylsulfonylethyl)tetrazol-5-yl]-thiomethyl}-ceph-3-em-4-carboxylate] yielded an MIC [1] of 8 µg/mL, an MIC [2] of 0.5 µg/mL and an MIC [3] of 0.25 µg/mL. The MIC [4] was 0.25 µg/mL, the MIC [5, 10] was 0.5 µg/mL and the MIC (Proteus mirabilis BC 17) was 0.25 µg/mL. It also gave an MIC (Proteus rettgeri BC 7) of 1 µg/mL, an MIC [6, 12] of 8 µg/mL and an MIC [7, 11] of 8 µg/mL. For the same compound, the MIC [8] was 0.5 µg/mL, the MIC [9] was 0.5 µg/mL and the ED50 (E. coli ATCC 11 775) was 1 to 2 mg/kg.

With `NC(=O)CCn1nnnc1SCC1=C(C(=O)O)N2C(=O)[C@@H](NC(=O)[C@H](NC(=O)Nc3cnc(NCc4ccc(S(N)(=O)=O)s4)nc3O)c3ccc(O)cc3)[C@H]2SC1` [C, Sodium 7β-{D-α-[3-(2-(5'-aminosulfonyl-2'-thienylmethylamino)-4-hydroxy-5-pyrimidinyl)-ureido]-p-hydroxyphenylacetamido}-3-{[1-(2'-aminocarbonylethyl)-tetrazol-5-yl]-thiomethyl}ceph-3-em-4-carboxylate] the MIC [1] was 4 µg/mL, the MIC [2] was 0.25 µg/mL and the MIC [3] was 0.12 µg/mL. The MIC [4] was 0.25 µg/mL, the MIC [5, 10] was 0.25 µg/mL and the MIC (Proteus mirabilis BC 17) was 0.25 µg/mL. It also gave an MIC (Proteus rettgeri BC 7) of 0.5 µg/mL, an MIC [6, 12] of 4 µg/mL and an MIC [7, 11] of 4 µg/mL. For the same compound, the MIC [8] was 0.5 µg/mL, the MIC [9] was 1 µg/mL and the ED50 (E. coli ATCC 11 775) was 0.7 mg/kg.

Compound `CO/N=C(\C(=O)N[C@@H]1C(=O)N2C(C(=O)O)=C(COC(N)=O)CS[C@H]12)c1ccco1` [Cefuroxim, cefuroxim, reference compound] has an MIC [1] of 4 µg/mL (≈ 9.43 µM), an MIC [2] of 32 µg/mL (≈ 75.4 µM) and an MIC [3] of 8 µg/mL (≈ 18.9 µM). For the same compound, the MIC [4] was 2 µg/mL (≈ 4.71 µM), the MIC ([5]; BC6) was 4 µg/mL (≈ 9.43 µM) and the MIC (Proteus mirabilis BC 17) was 0.5 µg/mL (≈ 1.18 µM). The MIC (Proteus rettgeri BC 7) was 2 µg/mL (≈ 4.71 µM), the MIC [8] was 8 µg/mL (≈ 18.9 µM) and the MIC [9] was 1 µg/mL (≈ 2.36 µM). The ED50 (E. coli ATCC 11 775) was over 100 mg/kg.
